BindingDB's records for doi:10.1021/jm00402a012 (Harvard Medical School, 1988)

Experiment: Inhibition of Folyl-polyglutamate synthase from mouse liver

Structure (SMILES) | Ki
CN(Cc1cnc2nc(N)nc(N)c2n1)c1ccc(C(=O)NC(CCS(=O)(=O)O)C(=O)O)cc1 (stereo not drawn) [2-{4-[(2,4-Diamino-pteridin-6-ylmethyl)-methyl-amino]-benzoylamino}-4-sulfo-butyric acid] | 188 µM
CN(Cc1cnc2nc(N)nc(N)c2n1)c1ccc(C(=O)NC(CCP(=O)(O)O)C(=O)O)cc1 (stereo not drawn) [2-{4-[(2,4-Diamino-pteridin-6-ylmethyl)-methyl-amino]-benzoylamino}-4-phosphono-butyric acid] | 185 µM
Nc1nc(N)c2nc(CNc3ccc(C(=O)NC(CCS(=O)(=O)O)C(=O)O)cc3)cnc2n1 (stereo not drawn) [2-{4-[(2,4-Diamino-pteridin-6-ylmethyl)-amino]-benzoylamino}-4-sulfo-butyric acid] | 45 µM
